Reference: ChEMBL document CHEMBL4052759, “Discovery of DS79182026: A potent orally active hepcidin production inhibitor” (Bioorg Med Chem Lett, 2017)

Legend:
[1] = target: Ribosomal protein S6 kinase alpha-5 (Homo sapiens) (UniProt O75582); assay: Inhibition of MSK1 (unknown origin) at 0.078 uM relative to control
[2] = target: Mitogen-activated protein kinase kinase kinase kinase 4 (Homo sapiens) (UniProt O95819); assay: Inhibition of HGK (unknown origin) at 0.078 uM relative to control
[3] = organism: Homo sapiens; assay: Inhibition of p70S6K (unknown origin) at 0.49 uM relative to control
[4] = target: Ephrin type-B receptor 1 (Homo sapiens) (UniProt P54762); assay: Inhibition of EPHB1 (unknown origin) at 0.49 uM relative to control
[5] = target: cAMP-dependent protein kinase catalytic subunit PRKX (Homo sapiens) (UniProt P51817); assay: Inhibition of PRKX (unknown origin) at 0.49 uM relative to control
[6] = target: Cyclin-dependent kinase 5/CDK5 activator 1 (Homo sapiens) (UniProt Q00535+Q15078); assay: Inhibition of CDK5/p25 (unknown origin) at 0.49 uM relative to control; type: protein-complex assay
[7] = target: Homeodomain-interacting protein kinase 2 (Homo sapiens) (UniProt Q9H2X6); assay: Inhibition of HIPK2 (unknown origin) at 0.49 uM relative to control
[8] = target: Homeodomain-interacting protein kinase 3 (Homo sapiens) (UniProt Q9H422); assay: Inhibition of HIPK3 (unknown origin) at 0.49 uM relative to control
[9] = target: Insulin-like growth factor 1 receptor (Homo sapiens) (UniProt P08069); assay: Inhibition of IGF1R (unknown origin) at 0.49 uM relative to control
[10] = target: Tyrosine-protein kinase JAK3 (Homo sapiens) (UniProt P52333); assay: Inhibition of JAK3 (unknown origin) at 0.49 uM relative to control
[11] = target: Calcium/calmodulin-dependent protein kinase type II subunit beta (Homo sapiens) (UniProt Q13554); assay: Inhibition of CAMK2 (unknown origin) at 0.49 uM relative to control
[12] = target: MAP/microtubule affinity-regulating kinase 4 (Homo sapiens) (UniProt Q96L34); assay: Inhibition of MARK4 (unknown origin) at 0.49 uM relative to control
[13] = target: MAP kinase-interacting serine/threonine-protein kinase 1 (Homo sapiens) (UniProt Q9BUB5); assay: Inhibition of MNK1 (unknown origin) at 0.49 uM relative to control
[14] = target: MAP kinase-interacting serine/threonine-protein kinase 2 (Homo sapiens) (UniProt Q9HBH9); assay: Inhibition of MNK2 (unknown origin) at 0.49 uM relative to control
[15] = target: NUAK family SNF1-like kinase 1 (Homo sapiens) (UniProt O60285); assay: Inhibition of NuaK1 (unknown origin) at 0.49 uM relative to control
[16] = target: Serine/threonine-protein kinase pim-2 (Homo sapiens) (UniProt Q9P1W9); assay: Inhibition of PIM2 (unknown origin) at 0.49 uM relative to control
[17] = target: Mitogen-activated protein kinase kinase kinase kinase 5 (Homo sapiens) (UniProt Q9Y4K4); assay: Inhibition of KHS1 (unknown origin) at 0.49 uM relative to control
[18] = target: Serine/threonine-protein kinase PAK 5 (Homo sapiens) (UniProt Q9P286); assay: Inhibition of PAK5 (unknown origin) at 0.49 uM relative to control
[19] = target: STE20-like serine/threonine-protein kinase (Homo sapiens) (UniProt Q9H2G2); assay: Inhibition of SLK (unknown origin) at 0.49 uM relative to control
[20] = target: Tyrosine-protein kinase BTK (Homo sapiens) (UniProt Q06187); assay: Inhibition of BTK (unknown origin) at 0.49 uM relative to control
[21] = tested on: Epidermal growth factor receptor (Homo sapiens), P00533 [T790M]; assay: Inhibition of EGFR T790M mutant (unknown origin) at 0.49 uM relative to control
[22] = target: Tyrosine-protein kinase Yes (Homo sapiens) (UniProt P07947); assay: Inhibition of Yes (unknown origin) at 0.49 uM relative to control
[23] = target: RAC-alpha serine/threonine-protein kinase (Homo sapiens) (UniProt P31749); assay: Inhibition of AKT1 (unknown origin) at 0.45 uM relative to control
[24] = target: CDK6/cyclin D3 (Homo sapiens) (UniProt P30281+Q00534); assay: Inhibition of CDK6/CyclinD3 (unknown origin) at 0.45 uM relative to control; type: protein-complex assay
[25] = target: Ephrin type-B receptor 1 (Homo sapiens) (UniProt P54762); assay: Inhibition of EPHB1 (unknown origin) at 0.45 uM relative to control
[26] = target: cAMP-dependent protein kinase catalytic subunit PRKX (Homo sapiens) (UniProt P51817); assay: Inhibition of PRKX (unknown origin) at 0.45 uM relative to control
[27] = target: Rho-associated protein kinase 1 (Homo sapiens) (UniProt Q13464); assay: Inhibition of ROCK1 (unknown origin) at 0.45 uM relative to control
[28] = target: Serine/threonine-protein kinase BRSK2 (Homo sapiens) (UniProt Q8IWQ3); assay: Inhibition of BRSK2 (unknown origin) at 0.45 uM relative to control
[29] = target: Homeodomain-interacting protein kinase 2 (Homo sapiens) (UniProt Q9H2X6); assay: Inhibition of HIPK2 (unknown origin) at 0.45 uM relative to control
[30] = target: Receptor tyrosine-protein kinase erbB-4 (Homo sapiens) (UniProt Q15303); assay: Inhibition of HER4 (unknown origin) at 0.45 uM relative to control
[31] = target: Mast/stem cell growth factor receptor Kit (Homo sapiens) (UniProt P10721); assay: Inhibition of KIT (unknown origin) at 0.45 uM relative to control
[32] = target: Tyrosine-protein kinase Lyn (Homo sapiens) (UniProt P07948); assay: Inhibition of LYNB (unknown origin) at 0.45 uM relative to control
[33] = target: MAP kinase-interacting serine/threonine-protein kinase 2 (Homo sapiens) (UniProt Q9HBH9); assay: Inhibition of MNK2 (unknown origin) at 0.45 uM relative to control
[34] = target: Protein kinase C beta (Homo sapiens) (UniProt P05771); assay: Inhibition of PKC-beta1 (unknown origin) at 0.45 uM relative to control

COC(=O)Nc1noc2cc(-c3c(-c4ccccn4)n[nH]c3C)ccc12
inhibition [1]: -5.7%
inhibition [2]: 40.7%

Cc1[nH]nc(C2CC2)c1-c1ccc2c(NC(=O)C3CC3)noc2c1
inhibition [3]: -5.3%
inhibition [4]: 1.3%
inhibition [5]: -1.7%
inhibition [6]: 4.3%
inhibition [7]: 2.7%
inhibition [8]: 1.3%
inhibition [9]: 1.3%
inhibition [10]: -7.3%
inhibition [11]: -7%
inhibition [12]: 8.7%
inhibition [13]: 3%
inhibition [14]: -1.7%
inhibition [15]: 5.7%
inhibition [16]: -6%
inhibition [17]: 6.3%
inhibition [18]: -1%
inhibition [19]: 4.7%
inhibition [20]: 0.3%
inhibition [21]: 0.7%
inhibition [22]: -8%

Cc1n[nH]c(C)c1-c1ccc2c(NC(=O)c3ccc(N4CCN(C)CC4)cc3)n[nH]c2c1
inhibition [23]: -1.7%
inhibition [24]: 5.3%
inhibition [25]: 6.7%
inhibition [26]: 0.3%
inhibition [27]: -2%
inhibition [28]: 13.3%
inhibition [29]: 5%
inhibition [30]: -7%
inhibition [31]: 24.7%
inhibition [32]: 24.3%
inhibition [33]: -1%
inhibition [34]: 7.7%
